Test results published in patent US10988459B2 (priority 2015, dated 2021).

What follows are compounds tested against human RIP1 kinase domain (2-375) (Homo sapiens (Human), UniProt Q13546) (assay: biochemical). Settings: Table 1; apparent Ki (Morrison tight-binding fit); 50 nM RIP1 kinase domain, 50 uM ATP, 2 hours incubation; read-out: RIP1 Ki.
Format: biochemical
Method in brief: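 50 nM purified kinase domain from baculovirus-infected insect cells, incubated 2 h with compound in 50 mM Hepes pH 7.5, 30 mM MgCl2, 1 mM DTT, 50 uM ATP, 0.002% Brij-35, 0.5% DMSO. ADP formation read by Transcreener FP at 633 nm excitation. Ki^app fitted with the Morrison tight-binding equation.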

Chain of human RIP1 kinase domain (2-375) (Q13546 2-375): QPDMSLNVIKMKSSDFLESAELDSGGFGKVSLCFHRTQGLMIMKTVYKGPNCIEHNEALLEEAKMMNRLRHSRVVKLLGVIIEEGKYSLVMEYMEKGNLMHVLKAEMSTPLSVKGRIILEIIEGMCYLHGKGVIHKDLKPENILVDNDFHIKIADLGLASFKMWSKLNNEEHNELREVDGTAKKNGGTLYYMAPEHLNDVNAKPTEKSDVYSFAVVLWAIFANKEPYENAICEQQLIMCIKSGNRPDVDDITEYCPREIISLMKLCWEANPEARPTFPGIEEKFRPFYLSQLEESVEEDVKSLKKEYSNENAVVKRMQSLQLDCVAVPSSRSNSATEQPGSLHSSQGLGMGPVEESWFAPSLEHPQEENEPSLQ

Row | SMILES | Ki
1 | CN1C(=O)[C@@H](NC(=O)c2n[nH]c3c2CC(n2cccn2)CC3)COc2ccccc21 (stereo partly drawn) [Example 20, N—((S)-5-methyl-4-oxo-2,3,4,5-tetrahydrobenzo[b][1,4]oxazepin-3-yl)-5-(1H-pyrazol-1-yl)-4,5,6,7-tetrahydro-1H-indazole-3-carboxamide] | 745 nM

Same assay, conditions: Table 3; apparent Ki (Morrison tight-binding fit); 50 nM RIP1 kinase domain, 50 uM ATP, 2 hours incubation; read-out: Ki

Row | SMILES | Ki
2 | Cc1cc2n(n1)CC[C@H](NC(=O)c1ncn3ccc(C(F)(F)F)cc13)C(=O)N2C (stereo in doubt) [Example 337, N-(2,4-dimethyl-5-oxo-5,6,7,8-tetrahydro-4H-pyrazolo[1,5-a][1,3]diazepin-6-yl)-7-(trifluoromethyl)imidazo[1,5-a]pyridine-1-carboxamide] | 536 nM

Same assay, conditions: Table 5; apparent Ki (Morrison tight-binding fit); 50 nM RIP1 kinase domain, 50 uM ATP, 2 hours incubation; read-out: Ki

Row | SMILES | Ki
3 | CN1C(=O)[C@@H](NC(=O)c2nc3n(n2)CCN[C@@H]3c2ccccc2)COc2ccccc21 (single isomer, unassigned) [Example 729] | 74 nM
4 | CN1C(=O)[C@@H](NC(=O)c2ncc3c(n2)[C@@](C)(C(F)(F)F)OC3)COc2ccccc21 [Example 743, (7S)-7-methyl-N-[(3S)-5-methyl-4-oxo-2,3-dihydro-1,5-benzoxazepin-3-yl]-7-(trifluoromethyl)-5H-furo[3,4-d]pyrimidine-2-carboxamide] | 17 nM
5 | COC1CN(Cc2cc3n(n2)CCC(NC(=O)c2ncn(Cc4ccccc4)n2)C(=O)N3C)C1 (single isomer, unassigned) [Example 722, 1-benzyl-N-[2-[(3-methoxyazetidin-1-yl)methyl]-4-methyl-5-oxo-7,8-dihydro-6H-pyrazolo[1,5-a][1,3]diazepin-6-yl]-1,2,4-triazole-3-carboxamide] | 444 nM
6 | COCCOCCc1cc2n(n1)CC[C@H](NC(=O)c1ncn(Cc3ccccc3F)n1)C(=O)N2C [Example 760, 1-[(2-fluorophenyl)methyl]-N-[(6S)-2-[2(2-methoxyethoxy)ethyl]-4-methyl-5-oxo-7,8-dihydro-6H-pyrazolo[1,5-a][1,3]diazepin-6-yl]-1,2,4-triazole-3-carboxamide] | 77 nM

Same assay, conditions: human RIP1 kinase domain (2-375), 50 uM ATP, 2 hours incubation, Transcreener ADP assay; read-out: RIP1 Ki

Row | SMILES | Ki
7 | CN1C(=O)[C@@H](NC(=O)c2n[nH]c3ccc(C4CC4)cc23)COc2ccccc21 [Example 92, (S)-5-cyclopropyl-N-(5-methyl-4-oxo-2,3,4,5-tetrahydrobenzo[b][1,4]oxazepin-3-yl)-1H-indazole-3-carboxamide] | 12.9 nM
8 | CC(C)c1ccc2[nH]nc(C(=O)N[C@H]3COc4ccccc4N(C)C3=O)c2n1 [Example 139, 5-isopropyl-N-[(3S)-5-methyl-4-oxo-2,3-dihydro-1,5-benzoxazepin-3-yl]-1H-pyrazolo[4,3-b]pyridine-3-carboxamide] | 29.2 nM
9 | CN1C(=O)C(NC(=O)c2ncn(Cc3ccccc3)n2)CCn2nc3c(c21)CSC3 (stereo not drawn) [Example 142, 1-benzyl-N-(1-methyl-2-oxo-1,2,3,4,5,10-hexahydro-8H-thieno[3′,4′:3,4]pyrazolo[1,5-a][1,3]diazepin-3-yl)-1H-1,2,4-triazole-3-carboxamide] | 65.8 nM
10 | CN1C(=O)[C@@H](NC(=O)c2nnn3c2CC2(CCCC2)C3)COc2ccccc21 [Example 118, (S)—N-(5-methyl-4-oxo-2,3,4,5-tetrahydrobenzo[b][1,4]oxazepin-3-yl)-4′H,6′H-spiro[cyclopentane-1,5′-pyrrolo[1,2-c][1,2,3]triazole]-3′-carboxamide] | 50.4 nM
11 | CN1C(=O)[C@@H](NC(=O)c2cc3c(cn2)CO[C@@]3(C)CC(F)(F)F)COc2ccccc21 [Example 168, (S)-1-methyl-N-((S)-5-methyl-4-oxo-2,3,4,5-tetrahydrobenzo[b][1,4]oxazepin-3-yl)-1-(2,2,2-trifluoroethyl)-1,3-dihydrofuro[3,4-c]pyridine-6-carboxamide] | 269 nM
12 | Cc1cc2n(n1)CC[C@H](NC(=O)c1ncn(CC3CCCCC3)n1)C(=O)N2C [Example 163, (S)-1-(cyclohexylmethyl)-N-(2,4-dimethyl-5-oxo-5,6,7,8-tetrahydro-4H-pyrazolo[1,5-a][1,3]diazepin-6-yl)-1H-1,2,4-triazole-3-carboxamide] | 22.3 nM
13 | CN1C(=O)C(NC(=O)c2nnc(Cc3cccc(F)c3F)[nH]2)CCCn2nccc21 (stereo not drawn) [Example 97, 5-(2,3-difluorobenzyl)-N-(4-methyl-5-oxo-4,5,6,7,8,9-hexahydropyrazolo[1,5-a][1,3]diazocin-6-yl)-4H-1,2,4-triazole-3-carboxamide] | 215 nM
14 | CN1C(=O)[C@@H](NC(=O)c2n[nH]c3c2CC(c2ccc(F)cc2F)OC3)COc2ccccc21 (stereo partly drawn) [Example 207, 5-(2,4-difluorophenyl)-N—((S)-5-methyl-4-oxo-2,3,4,5-tetrahydrobenzo[b][1,4]oxazepin-3-yl)-1,4,5,7-tetrahydropyrano[3,4-c]pyrazole-3-carboxamide] | 61.7 nM

Same assay, conditions: human RIP1 kinase domain (2-375), Transcreener ADP assay, 50 uM ATP, 2 hours incubation; read-out: RIP1 Ki

Row | SMILES | Ki
15 | CN1C(=O)[C@@H](NC(=O)c2ncn(Cc3cccc(F)c3F)n2)CCn2nc([C@H]3CC3(F)F)cc21 [Example 311, 1-(2,3-difluorobenzyl)-N—((S)-2-((R)-2,2-difluorocyclopropyl)-4-methyl-5-oxo-5,6,7,8-tetrahydro-4H-pyrazolo[1,5-a][1,3]diazepin-6-yl)-1H-1,2,4-triazole-3-carboxamide] | 5250 nM
16 | CN1C(=O)[C@@H](NC(=O)c2cc(C3(O)CCC3)ccn2)COc2ccccc21 [Example 327, (S)-4-(1-hydroxycyclobutyl)-N-(5-methyl-4-oxo-2,3,4,5-tetrahydrobenzo[b][1,4]oxazepin-3-yl)picolinamide] | 1370 nM
17 | CN1C(=O)[C@@H](NC(=O)c2ncn(Cc3ccc(F)cc3F)n2)CCn2nc([C@H]3CC3(F)F)cc21 [Example 315, 1-(2,4-difluorobenzyl)-N—((S)-2-((R)-2,2-difluorocyclopropyl)-4-methyl-5-oxo-5,6,7,8-tetrahydro-4H-pyrazolo[1,5-a][1,3]diazepin-6-yl)-1H-1,2,4-triazole-3-carboxamide] | 9500 nM
18 | CN1C(=O)[C@@H](NC(=O)c2cc3c(cn2)COC3(C)C2CC2)COc2ccccc21 (stereo partly drawn) [Example 267, 1-cyclopropyl-1-methyl-N—((S)-5-methyl-4-oxo-2,3,4,5-tetrahydrobenzo[b][1,4]oxazepin-3-yl)-1,3-dihydrofuro[3,4-c]pyridine-6-carboxamide] | 37.4 nM

Same assay, conditions: read-out: RIP1 Ki

Row | SMILES | Ki
19 | CN1C(=O)[C@@H](NC(=O)c2n[nH]c3c2CC(C(C)(C)C)CC3)COc2ccccc21 (stereo partly drawn) [Example 3, 5-(tert-butyl)-N—((S)-5-methyl-4-oxo-2,3,4,5-tetrahydrobenzo[b][1,4]oxazepin-3-yl)-4,5,6,7-tetrahydro-1H-indazole-3-carboxamide] | 68.8 nM

Same assay, conditions: tight-binding apparent inhibition constant; human RIP1 kinase domain (2-375) 50 nM, 50 uM ATP, 2 hours; read-out: Ki

Row | SMILES | Ki
20 | Cc1cc2n(n1)CC[C@H](NC(=O)c1ncn(Cc3ccccc3C(F)(F)F)n1)C(=O)N2C [Example 584, N-(6S)-2,4-dimethyl-5-oxo-7,8-dihydro-6H-pyrazolo[1,5-a][1,3]diazepin-6-yl-1-[[2-(trifluoromethyl)phenyl]methyl]-1,2,4-triazole-3-carboxamide] | 25 nM
21 | CC(C)[C@@H]1CCCc2nc(C(=O)N[C@H]3COc4cc(F)cc(F)c4NC3=O)nn21 (single isomer, unassigned) [Example 444] | 4.67 nM
22 | CC[C@@]1(C)OCc2cnc(C(=O)N[C@H]3COc4ccccc4N(C)C3=O)nc21 (mixture of isomers) [Example 682, (7R)-7-ethyl-7-methyl-N-[rac-(3S)-5-methyl-4-oxo-2,3-dihydro-1,5-benzoxazepin-3-yl]-5H-furo[3,4-d]pyrimidine-2-carboxamide] | 73.8 nM
23 | CN1C(=O)[C@@H](NC(=O)c2ncn(Cc3ccccn3)n2)CCn2nc(C3CC3)cc21 [Example 652] | 190 nM
24 | CN1C(=O)[C@@H](NC(=O)c2ncn(Cc3ccccc3)n2)CCn2nc(C[C@H]3CC3(F)F)cc21 [Example 547, 1-benzyl-N-(6S)-4-methyl-5-oxo-2-[(1 S)-2,2-difluorocyclopropylmethyl]-7,8-dihydro-6H-pyrazolo[1,5-a][1,3]diazepin-6-yl-1,2,4-triazole-3-carboxamide] | 8.5 nM
25 | CN1C(=O)[C@@H](NC(=O)c2nc3cccc(-c4ccoc4)n3n2)CCn2nccc21 [Example 389, (S)-5-(furan-3-yl)-N-(4-methyl-5-oxo-5,6,7,8-tetrahydro-4H-pyrazolo[1,5-a][1,3]diazepin-6-yl)-[1,2,4]triazolo[1,5-a]pyridine-2-carboxamide] | 173 nM
26 | CC(C)[C@H]1CCCc2nc(C(=O)N[C@H]3COc4ccccc4N(C)C3=O)nn21 (single isomer, unassigned) [Example 413] | 227 nM
27 | CN1C(=O)[C@@H](NC(=O)c2nc3cccc(-c4ccoc4)n3n2)COc2ccccc21 [Example 399, (S)-5-(furan-3-yl)-N-(5-methyl-4-oxo-2,3,4,5-tetrahydrobenzo[b][1,4]oxazepin-3-yl)-[1,2, 4]triazolo[1,5-a]pyridine-2-carboxamide] | 4.5 nM
28 | CN1C(=O)[C@@H](NC(=O)c2ncn(Cc3c(F)cccc3F)n2)CCn2nccc21 [Example 343, 1-[(2,6-difluorophenyl)methyl]-N-[(6S)-4-methyl-5-oxo-7,8-dihydro-6H-pyrazolo[1,5-a][1,3]diazepin-6-yl]-1,2,4-triazole-3-carboxamide] | 9.73 nM
29 | CN1C(=O)[C@@H](NC(=O)c2nc3n(n2)CCO[C@@H]3c2ccccc2)COc2ccccc21 [Example 517, (8R)-8-phenyl-N-[(3S)-5-methyl-4-oxo-2,3-dihydro-1,5-benzoxazepin-3-yl]-6,8-dihydro-5H-[1,2,4]triazolo[5,1-c][1,4]oxazine-2-carboxamide] | 660 nM
30 | COc1ccccc1Cn1cnc(C(=O)N[C@H]2CCn3nc(C4CC4)cc3N(C)C2=O)n1 [Example 592] | 48 nM
